What is called GI50 is the concentration at which growth is held to half of that of the control. As a reminder, the TGI is the concentration at which net growth stops.

The source of these data is PubChem BioAssay (NCI).

Where “and” joins values, the source holds several entries; their conditions need not be identical. Equal entries are not always repeated.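 Tested at 5 concentrations; 48 h exposure; 96-well plates; endpoints linearly interpolated, else capped at highest concentration. Here, GI50 denotes the concentration required for 50% inhibition of growth. The concentration for full growth arrest is given as TGI.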

Some test systems named below: A549 NSCLC; COLO 205 colon; HCT-116 colon; HOP-62 NSCLC; HOP-92 NSCLC; KM12 colon; NCI-H226 lung; OVCAR-8 ovarian; PC-3 prostate; SK-OV-3 ovarian.
Common to all, as to experiment: DTP human tumour cell line panel, 48 h

For `COc1cc(OC)c(/C=C/c2c3ccccc3cc[n+]2C)c(OC)c1`, the GI50 was 2.13 µM with A549 NSCLC; 0.774 µM in the assay with COLO 205 colon; 1.4 µM in the assay on HCT-116 colon; 3.52 µM with HOP-62 NSCLC; 1.8 µM with HOP-92 NSCLC; 0.673 µM in the assay with KM12 colon. Besides, the GI50 in the assay on NCI-H226 lung was 2.73 µM; in the assay on OVCAR-8 ovarian it was 2.27 µM; with PC-3 prostate, 0.943 µM; in the assay on SK-OV-3 ovarian, 3.58 µM. Besides, the TGI with A549 NSCLC was more than 100 µM; with COLO 205 colon it was 2.95 µM; with HCT-116 colon, 13.5 µM; in the assay with HOP-62 NSCLC it was more than 33.7 µM; with HOP-92 NSCLC, 12.4 µM; in the assay with KM12 colon, 6.85 µM. The TGI was more than 100 µM with NCI-H226 lung, 12.4 µM in the assay on OVCAR-8 ovarian, more than 37.9 µM in the assay with PC-3 prostate and more than 100 µM with SK-OV-3 ovarian.
Turning to `O=C(Nc1ccc(-n2ccc3c(NC(=O)c4ccccc4)nccc32)cc1)Nc1ccc(Cl)c(Cl)c1`, the GI50 with A549 NSCLC is 1.01 µM; in the assay with COLO 205 colon it was 1.42 µM; in the assay on HCT-116 colon, 0.488 µM; with HOP-62 NSCLC, 1.31 µM; in the assay with HOP-92 NSCLC, 1.23 µM; in the assay with KM12 colon, 0.985 µM. For the same compound, the GI50 in the assay on NCI-H226 lung was 15.9 µM; in the assay with OVCAR-8 ovarian, 1.26 µM; in the assay on PC-3 prostate, 1.06 µM; with SK-OV-3 ovarian, 1.2 µM. Moreover, the TGI in the assay with A549 NSCLC is 2.57 µM; with COLO 205 colon it was 3.27 µM; with HCT-116 colon, 1.74 µM; with HOP-62 NSCLC, 2.75 µM; in the assay with HOP-92 NSCLC, 4.61 µM; in the assay with KM12 colon it was 2.5 µM. Moreover, the TGI in the assay with NCI-H226 lung is 97.7 µM; in the assay on OVCAR-8 ovarian, 3.7 µM; in the assay with PC-3 prostate, more than 26.6 µM; with SK-OV-3 ovarian, 3.29 µM.
`Cc1cc(C)c(NC(=O)c2sc3nc4c(cc3c2N)CN(Cc2ccccc2)CC4)c(C)c1`: the GI50 in the assay on A549 NSCLC was 4.11 µM; in the assay with COLO 205 colon, 2.98 µM; in the assay on HCT-116 colon, 2.89 µM; with HOP-62 NSCLC it was 7.73 µM; in the assay with HOP-92 NSCLC, 0.877 µM; in the assay on KM12 colon, 3.26 µM. The GI50 in the assay with NCI-H226 lung was 4.69 µM; in the assay on OVCAR-8 ovarian, 4.72 µM; with PC-3 prostate it was 3.13 µM; in the assay on SK-OV-3 ovarian it was 5.35 µM. Besides, the total growth inhibition concentration (TGI) is more than 100 µM with A549 NSCLC; 10.1 µM in the assay on COLO 205 colon; 16 µM in the assay with HCT-116 colon; more than 100 µM in the assay on HOP-62 NSCLC; 42.6 µM in the assay on HOP-92 NSCLC; 43.1 µM in the assay on KM12 colon. Besides, the TGI with NCI-H226 lung, in the assay with OVCAR-8 ovarian, with PC-3 prostate and in the assay on SK-OV-3 ovarian was more than 100 µM each time.
As to `O=C(Nc1ccc(F)cc1)c1cc(S(=O)(=O)Nc2nc3ccccc3o2)c(SCc2ccccc2)cc1Cl`, the GI50 was 18.3 µM in the assay with A549 NSCLC; 46.2 µM with COLO 205 colon; 17.9 µM in the assay with HCT-116 colon; 17.7 µM in the assay with HOP-62 NSCLC; 18.5 µM in the assay with HOP-92 NSCLC; 17.5 µM in the assay with KM12 colon. For the same compound, the GI50 with NCI-H226 lung was 12.1 µM; with OVCAR-8 ovarian it was 17.7 µM; with PC-3 prostate it was 24.4 µM; with SK-OV-3 ovarian, 22.1 µM. The TGI in the assay with A549 NSCLC is 38.4 µM; with COLO 205 colon it was more than 100 µM; in the assay on HCT-116 colon, 31.7 µM; in the assay with HOP-62 NSCLC, 33.5 µM; in the assay with HOP-92 NSCLC it was 42.4 µM; in the assay with KM12 colon it was 33.9 µM. Moreover, the TGI in the assay with NCI-H226 lung is 28.4 µM; in the assay on OVCAR-8 ovarian, 36 µM; in the assay with PC-3 prostate, 53.5 µM; with SK-OV-3 ovarian, 53.1 µM.
On to `CC[C@H]1CN2CCc3cc(OC)c(OC)cc3[C@@H]2C[C@@H]1C[C@H]1NCCc2c1[nH]c1ccc(O)cc21`, for which the GI50 was 0.0192 µM and 0.0336 µM in the assay with A549 NSCLC; 0.019 µM and 0.0187 µM in the assay with COLO 205 colon; 0.0196 µM and 0.0409 µM in the assay on HCT-116 colon; 0.0264 µM and 0.0298 µM in the assay with HOP-62 NSCLC; 0.0183 µM and 0.0337 µM in the assay on HOP-92 NSCLC; 0.0507 µM and 0.0994 µM with KM12 colon. Also, the GI50 with NCI-H226 lung was 0.0282 µM and 0.0409 µM; with OVCAR-8 ovarian, 0.0323 µM and 0.0377 µM; in the assay on PC-3 prostate, 0.0345 µM; in the assay on SK-OV-3 ovarian, 0.0348 µM and 0.0711 µM. Further, the TGI in the assay with A549 NSCLC is 0.0627 µM and 0.121 µM and 0.321 µM; in the assay on COLO 205 colon, 0.0339 µM and 0.0347 µM and < 0.0117 µM; in the assay with HCT-116 colon, 0.0475 µM and 0.207 µM and 0.195 µM; in the assay on HOP-62 NSCLC, 0.0748 µM and 0.0941 µM and 0.0488 µM; in the assay with KM12 colon, 0.283 µM and 1.37 µM and 0.519 µM; with NCI-H226 lung, 0.0778 µM and 0.261 µM and 0.0326 µM. For the same compound, the TGI was 0.814 µM in the assay on PC-3 prostate; 0.142 µM and 0.431 µM and 0.529 µM in the assay on SK-OV-3 ovarian.
For `CCN1C(=O)N(CC)C2C1NN=c1s/c(=C3\C(=O)N(CC(C)(C)C)c4ccccc43)c(=O)n12` (stereo not drawn), the GI50 in the assay on A549 NSCLC is 4.35 µM; with COLO 205 colon it was 3.31 µM; in the assay on HCT-116 colon, 3.43 µM; with HOP-62 NSCLC, 4.93 µM; in the assay on HOP-92 NSCLC it was 2.56 µM; in the assay on KM12 colon, 3.67 µM. In addition, the GI50 with NCI-H226 lung was 5.71 µM; in the assay with OVCAR-8 ovarian, 4.67 µM; in the assay on PC-3 prostate, 4.31 µM; with SK-OV-3 ovarian, 10.7 µM. Besides, the TGI in the assay with A549 NSCLC stood at 36.4 µM; in the assay with COLO 205 colon it was 13.5 µM; in the assay on HCT-116 colon, 14.5 µM; in the assay with HOP-62 NSCLC, 22.8 µM; in the assay with HOP-92 NSCLC, 16 µM; in the assay with KM12 colon, 18.4 µM. Also, the TGI with NCI-H226 lung is 28.1 µM; in the assay with OVCAR-8 ovarian, more than 100 µM; in the assay on PC-3 prostate, 31.5 µM; in the assay on SK-OV-3 ovarian it was 74.6 µM.
As for `COC(=O)[C@@H](C)C[C@H](Cc1ccccc1)NC(=O)c1csc([C@@H](C[C@H](C(C)C)N(C)C(=O)[C@@H](NC(=O)[C@H]2CCCCN2C)C2CCCCC2)OC(C)=O)n1`, the GI50 is 0.0022 µM and 0.0025 µM in the assay on A549 NSCLC; 0.000301 µM and < 0.0025 µM with COLO 205 colon; 0.000325 µM and 0.0025 µM with HCT-116 colon; 0.00213 µM and 0.0025 µM in the assay with HOP-62 NSCLC; 0.000977 µM and 0.0025 µM with HOP-92 NSCLC; 0.000296 µM and 0.0025 µM in the assay with KM12 colon. The GI50 is 0.0025 µM with NCI-H226 lung; 0.00354 µM and 0.0025 µM with OVCAR-8 ovarian; 0.000435 µM and 0.0025 µM in the assay with PC-3 prostate; 0.000567 µM and 0.0025 µM in the assay with SK-OV-3 ovarian. Moreover, the TGI in the assay with A549 NSCLC was more than 25 µM; in the assay with COLO 205 colon, 0.0026 µM and < 0.0025 µM; in the assay on HCT-116 colon, 0.00325 µM; with HOP-62 NSCLC, more than 25 µM; in the assay on HOP-92 NSCLC it was 0.0112 µM; in the assay with KM12 colon, more than 25 µM. Also, the TGI with NCI-H226 lung is more than 25 µM; with OVCAR-8 ovarian it was more than 25 µM; with PC-3 prostate, 20.9 µM; in the assay with SK-OV-3 ovarian, more than 25 µM.
As to `NC(=O)c1cc(S(=O)(=O)Nc2nnc(-c3ccccc3)c(-c3ccccc3)n2)c(SCc2ccccc2)cc1Cl`, the GI50 in the assay with A549 NSCLC is more than 100 µM; in the assay on COLO 205 colon it was more than 100 µM; in the assay on HCT-116 colon, more than 100 µM; in the assay with HOP-62 NSCLC, more than 100 µM; in the assay with HOP-92 NSCLC, more than 100 µM; in the assay with KM12 colon it was more than 62.6 µM. The GI50 with NCI-H226 lung is more than 46.9 µM; in the assay with OVCAR-8 ovarian it was more than 50.3 µM; in the assay with PC-3 prostate it was more than 62.2 µM; in the assay on SK-OV-3 ovarian, more than 74.7 µM. For the same compound, the TGI with A549 NSCLC, with COLO 205 colon, in the assay with HCT-116 colon, in the assay with HOP-62 NSCLC, in the assay on HOP-92 NSCLC and with KM12 colon was more than 100 µM in each case. Moreover, the TGI was more than 69.4 µM with NCI-H226 lung, more than 77.5 µM in the assay on OVCAR-8 ovarian, more than 100 µM in the assay with PC-3 prostate and more than 100 µM with SK-OV-3 ovarian.
For the compound `COCC1(CO)C(=O)C2CCN1CC2` (stereo not drawn), the GI50 was more than 79 µM with A549 NSCLC; 16.8 µM in the assay on COLO 205 colon; 14.3 µM in the assay with HCT-116 colon; more than 100 µM with HOP-62 NSCLC; 14.8 µM in the assay on HOP-92 NSCLC; more than 100 µM with KM12 colon. The GI50 is more than 47.5 µM in the assay with NCI-H226 lung, 34.6 µM with OVCAR-8 ovarian, 36 µM in the assay on PC-3 prostate and more than 51 µM in the assay with SK-OV-3 ovarian. The TGI is more than 100 µM in the assay on A549 NSCLC; 35.8 µM in the assay on COLO 205 colon; 27.9 µM in the assay on HCT-116 colon; more than 100 µM with HOP-62 NSCLC; 30 µM in the assay on HOP-92 NSCLC; more than 100 µM in the assay on KM12 colon. For the same compound, the TGI with NCI-H226 lung is more than 71.9 µM; in the assay on OVCAR-8 ovarian it was more than 80.3 µM; in the assay with PC-3 prostate, more than 58.4 µM; in the assay with SK-OV-3 ovarian, more than 80.9 µM.
In the case of `O[C@H](c1cc(C(F)(F)F)nc2c(C(F)(F)F)cccc12)[C@@H]1CCCCN1`, the GI50 with A549 NSCLC is 5.25 µM; in the assay on COLO 205 colon, 1.98 µM; in the assay with HCT-116 colon it was 2.3 µM; in the assay on HOP-62 NSCLC it was 4.73 µM; in the assay with HOP-92 NSCLC, 1.79 µM; in the assay with KM12 colon it was 1.63 µM. The GI50 is 6.72 µM in the assay with NCI-H226 lung, 5.11 µM with OVCAR-8 ovarian, 2.08 µM with PC-3 prostate and 6.11 µM in the assay on SK-OV-3 ovarian. The TGI worked out at 16.3 µM with A549 NSCLC; 4.27 µM in the assay on COLO 205 colon; 5.44 µM in the assay on HCT-116 colon; 11.8 µM in the assay with HOP-62 NSCLC; 8.43 µM with HOP-92 NSCLC; 3.34 µM in the assay on KM12 colon. For the same compound, the TGI in the assay with NCI-H226 lung worked out at 22.6 µM; with OVCAR-8 ovarian it was 14.7 µM; in the assay on PC-3 prostate it was 5.79 µM; in the assay on SK-OV-3 ovarian, 17.8 µM.
